Results taken from patent publication US20110301211A1, “ANTAGONISTS OF LYSOPHOSPHATIDIC ACID RECEPTORS” (priority 2008, published 2011).

How the values were obtained:
human LPA1 = molecular target: T1, human LPA1 (Homo sapiens, UniProt Q92633); assay: HLPA1 Ca Flux assay (LPA1 calcium flux assay); format: cell-based; settings: CHO cells expressing human LPA1, 10 nM LPA
T1 construct: the full-length cDNA for human LPA1 was obtained by PCR of the reverse transcription reaction; expressed in transfected cells
Protocol: A 1.1 kb cDNA encoding the human LPA1 receptor was cloned from human lung. Human lung RNA (Clontech Laboratories, Inc. USA) was reverse transcribed using the RETROscript kit (Ambion, Inc.) and the full-length cDNA for human LPA1 was obtained by PCR of the reverse transcription reaction. The nucleotide sequence of the cloned human LPA1 was determined by sequencing and confirmed to be identical to the published human LPA1 sequence (An et al. Biochem. Biophys. Res. Commun. 231:619 (1997). The cDNA was cloned into the pcDNA5/FRT expression plasmid and transfected in CHO cells using lipofectamine 2000 (Invitrogen Corp., USA). Clones stably expressing human LPA1 were selected using hygromycin and identified as cells that show Ca-influx in response to LPA.
(§1) Human LPA1 or LPA3 expressing CHO cells are seeded at 20,000-45,000 cells per well in a 96-well poly-D-lysine coated plate one or two days before the assay. Prior to the assay, the cells are washed once with PBS and then cultured in serum-free media overnight. On the day of the assay, a calcium indicator dye (Calcium 4, Molecular Devices) in assay buffer (HBSS with Ca^2+ and Mg^2+ and containing 20 mM Hepes and 0.3% fatty-acid free human serum albumin) is added to each well and incubation continued for 1 hour at 37° C. 10 μl of test compounds in 2.5% DMSO are added to the cells and incubation continued at room temperature for 30 minutes. Cells are the stimulated by the addition of 10 nM LPA and intracellular Ca^2+ measured using the Flexstation 3 (Molecular Devices). IC50s are determined using Graphpad prism analysis of drug titration curves.

Female CD-1 mice = assay: Bleomycin-induced lung fibrosis model in mice; format: in vivo; settings: acute setting (3 day)
Description: Female CD-1 mice (Harlan, 25-30 g) are housed 4 per cage, given free access to food and water and allowed to acclimate for at least 7 days prior to test initiation. After the habituation phase, mice are lightly anesthetized with isoflurane (5% in 100% O2) and administered with bleomycin sulfate (0.01-5 U/kg, Henry Schein) via intratracheal instillation (Cuzzocrea S et al. Am J Physiol Lung Cell Mol. Physiol. 2007 May; 292(5):L1095-104. Epub 2007 Jan. 12.). Mice are returned to their cages and monitored daily for the duration of the experiment. Test compound or vehicle is delivered po, ip or sc daily. The route and frequency of dosing is based on previously determined pharmacokinetic properties. […] BALF is analyzed for concentrations of inflammatory, pro-fibrotic and tissue injury biomarkers including transforming growth factor β1, hyaluronic acid, tissue inhibitor of metalloproteinase-1, matrix matelloproteinase-7, connective tissue growth factor and lactate dehydrogenase activity, using commercially available ELISA. […] Total cell counts are then obtained using a Hemavet hematology system (Drew Scientific, Wayne, Pa.) and differential cells counts are determined using Shandon cytospin (Thermo Scientific, Waltham, Mass.). […] The data are plotted using Graphpad prism and statistical differences between groups determined.

Female C57BL/6 mice [1] = assay: Mouse carbon tetrachloride (CCl4)-induced liver fibrosis model; format: in vivo; settings: for collagen deposition in the liver: as compared to the untreated group
Protocol: Female C57BL/6 mice (Harlan, 20-25 g) housed 4/cage are given free access to food and water and allowed to acclimate for at least 7 days prior to test initiation. After the habituation phase, mice receive CCl4 (0.5-1.0 ml/kg body weight) diluted in corn oil vehicle (100 μL volume) via i.p. injection twice a week for 4-6 weeks. (Higazi, A. A. et al., Clin Exp Immunol. 2008 April; 152(1):163-73. Epub 2008 Feb. 14.). Control mice receive an equivalent volume of corn oil vehicle only. Test compound or vehicle is delivered po, ip or sc daily. At the end of the study (4-6 weeks after first i.p. injection of CCl4), mice are sacrificed using inhaled isoflurane and blood is drawn via cardiac puncture for subsequent analysis of ALT/AST levels. The liver is harvested, and one half of the liver is frozen at −80° C. and the other half is fixed in 10% neutral buffered formalin for histological assessment of liver fibrosis using light microscopy (10× magnification). Liver tissue homogenates are analyzed for collagen levels using Sircol (Biocolor Ltd, UK). Fixed Liver tissue is stained using hematoxylin and eosin (H&E) and trichrome and liver fibrosis is determined by quantitative, computer-assisted densitometry of collagen in liver tissue sections using light microscopy. Plasma and liver tissue lysates are also analyzed for concentrations of inflammatory, pro-fibrotic and tissue injury biomarkers including transforming growth factor β1, hyaluronic acid, tissue inhibitor of metalloproteinase-1, matrix matelloproteinase-7, connective tissue growth factor and lactate dehydrogenase activity, using commercially available ELISA. The resulting data are plotted using Graphpad prism and statistical differences between groups determined.

Female C57BL/6 mice [2] = assay: Mouse unilateral ureteral obstruction kidney fibrosis model; format: in vivo; settings: as compared to the untreated group
Protocol: Female C57BL/6 mice (Harlan, 20-25 g) housed 4/cage will be given free access to food and water and allowed to acclimate for at least 7 days prior to test initiation. After the habituation phase, mice undergo unilateral ureteral obstruction (UUO) surgery or sham to left kidney. Briefly, a longitudinal, upper left incision is performed to expose the left kidney. The renal artery is located and 6/0 silk thread is passed between the artery and the ureter. The thread is looped around the ureter and knotted 3 times insuring full ligation of ureter. The kidney is returned to abdomen, the abdominal muscle is sutured and the skin is stapled closed. Mice are returned to their cages and monitored daily for the duration of the experiment. Test compound or vehicle is delivered po, ip or sc daily. The route and frequency of dosing is based on previously determined pharmacokinetic properties. All animals are sacrificed using inhaled isoflurane 4, 8 or 14 days after UUO surgery. […] Kidney tissue homogenates are analyzed for collagen levels using Sircol (Biocolor Ltd, UK). Fixed kidney tissue is also stained using hematoxylin and eosin (H&E) and trichrome and kidney fibrosis is determined by quantitative, computer-assisted densitometry of collagen in […] tissue sections using light microscopy. […] The resulting data are plotted using Graphpad prism and statistical differences between groups determined.

human LPA3 = molecular target: T2, human LPA3 (Homo sapiens, UniProt Q9UBY5); assay: HLPA3 Ca Flux assay (LPA3 calcium flux assay); format: cell-based; settings: CHO cells expressing human LPA3, 10 nM LPA
T2 construct: The full-length cDNA fragment for human LPA3 was obtained by PCR from the vector
T2 sequence (Q9UBY5 1-353): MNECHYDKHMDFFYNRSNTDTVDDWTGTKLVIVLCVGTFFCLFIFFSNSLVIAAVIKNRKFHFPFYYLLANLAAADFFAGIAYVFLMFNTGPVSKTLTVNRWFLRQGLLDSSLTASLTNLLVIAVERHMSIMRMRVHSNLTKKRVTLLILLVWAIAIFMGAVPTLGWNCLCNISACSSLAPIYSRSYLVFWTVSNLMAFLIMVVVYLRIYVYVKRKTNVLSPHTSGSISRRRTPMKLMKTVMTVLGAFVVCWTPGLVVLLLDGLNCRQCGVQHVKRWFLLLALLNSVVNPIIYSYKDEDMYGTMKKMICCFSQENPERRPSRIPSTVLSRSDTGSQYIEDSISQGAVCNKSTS
Protocol: A vector containing the human LPA3 receptor cDNA was obtained from the Missouri S&T cDNA Resource Center (www.cdna.org). The full-length cDNA fragment for human LPA3 was obtained by PCR from the vector. The nucleotide sequence of the cloned human LPA3 was determined by sequencing and confirmed to be identical to the published human LPA3 sequence (NCBI accession number NM 012152). The cDNA was cloned into the pcDNA5/FRT expression plasmid and transfected in CHO cells using lipofectamine 2000 (Invitrogen Corp., USA). Clones stably expressing human LPA3 were selected using hygromycin and identified as cells that show Ca-influx in response to LPA.
as §1, with “10 μl of test compounds in 2.5% DMSO are added to the cells and incubation continued at room temperature for 30 minutes.” left out

[3] = tested on: pancreatic cancer cell lines; settings: cited from earlier work
[4] = tested on: highly peritoneal metastatic pancreatic cancer cell line; settings: cited from earlier work
[5] = cited from earlier work
[6] = tested on: Unilateral ureteral obstruction (UUO; animal model of renal fibrosis) mice; settings: LPA1 (−/−) mice: renal fibrosis significantly attenuated; cited from earlier work

T1 sequence (Q92633 whole entry): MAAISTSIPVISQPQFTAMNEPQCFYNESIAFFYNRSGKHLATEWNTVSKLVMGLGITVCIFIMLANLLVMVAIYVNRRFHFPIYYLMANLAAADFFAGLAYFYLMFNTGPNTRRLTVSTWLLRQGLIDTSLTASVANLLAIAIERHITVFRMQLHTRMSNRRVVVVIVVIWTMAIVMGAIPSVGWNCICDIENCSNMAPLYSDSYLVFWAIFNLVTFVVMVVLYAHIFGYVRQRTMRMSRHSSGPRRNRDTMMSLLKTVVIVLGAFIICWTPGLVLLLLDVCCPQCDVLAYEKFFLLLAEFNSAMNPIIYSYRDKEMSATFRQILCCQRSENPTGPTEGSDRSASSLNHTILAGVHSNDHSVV

COc1ccc(C(C)OC(=O)Nc2c(C)noc2-c2ccc(-c3ccc(CC(=O)O)cc3)cc2)c(F)c1 (centres unmarked) [Compound 40, (4′-{4-[1-(2-Fluoro-4-methoxy-phenyl)-ethoxycarbonylamino]-3-methyl-isoxazol-5-yl}-biphenyl-4-yl)-acetic acid]
IC50 (human LPA1): 1000 to 50000 nM

Cc1noc(-c2ccc(-c3ccc(CC(=O)O)cc3)cc2)c1NC(=O)O[C@H](C)c1ccccc1 [Compound 37]
tissue inhibitor of metalloproteinase-1 (TIMP-1; pro-fibrotic marker) concentrations in BALF (Female CD-1 mice): reduced
collagen deposition in the liver (Female C57BL/6 mice [1]): significantly reduced
reduction of kidney fibrosis (Female C57BL/6 mice [2]): 55%

COc1ccccc1C(C)OC(=O)Nc1c(C)noc1-c1ccc(-c2ccc(CC(=O)O)cc2)cc1 (centres unmarked) [Compound 6, (4′-{4-[1-(2-Methoxy-phenyl)-ethoxycarbonylamino]-3-methyl-isoxazol-5-yl}-biphenyl-4-yl)-acetic Acid]
IC50 (human LPA3): 1000 to 50000 nM

Cc1noc(-c2ccc(-c3cccc(CC(=O)O)c3)cc2)c1NC(=O)O[C@H](C)c1ccccc1 [Compound 43, {4′-[3-Methyl-4-((R)-1-phenyl-ethoxycarbonylamino)-isoxazol-5-yl]-biphenyl-3-yl}-acetic Acid]
IC50 (human LPA1): 300 to 1000 nM

Cc1noc(-c2ccc(-c3ccc(CC(=O)NCCS(=O)(=O)O)cc3)cc2)c1NC(=O)O[C@H](C)c1ccccc1 [Compound 67, 2-(2-{4′-[3-Methyl-4-((R)-1-phenyl-ethoxycarbonylamino)-isoxazol-5-yl]-biphenyl-4-yl}-acetylamino)-ethanesulfonic Acid]
IC50 (human LPA1): < 300 nM

Cc1noc(-c2ccc(CSCCC(=O)O)cc2)c1NC(=O)OC(C)c1ccccc1Cl (centres unmarked) [Ki16425]
in vitro migration in response to LPA and peritoneal fluid (ascites) from pancreatic cancer patients [3]: effectively blocked
LPA-induced and ascites-induced invasion activity [4]: blocked
metastasis to bone in vivo [5]: inhibit
development of renal fibrosis in UUO mice [6]: closely resembled the LPA1 (−/−) mice

Cc1noc(-c2ccc(-c3ccc(CC(=O)O)cc3)cc2)c1NC(=O)O[C@H](C)c1ccccc1Cl [Compound 27, (4′-{4-[(R)-1-(2-Chloro-phenyl)-ethoxycarbonylamino]-3-methyl-isoxazol-5-yl}-biphenyl-4-yl)-acetic acid]
tissue inhibitor of metalloproteinase-1 (TIMP-1; pro-fibrotic marker) concentrations in BALF (Female CD-1 mice): significantly reduced
effect on collagen deposition compared with pirfenidone (Female C57BL/6 mice [1]; 30 mg/kg, po, qd): same effect on collagen deposition as pirfenidone
collagen deposition in the liver (Female C57BL/6 mice [1]): significantly reduced
reduction of kidney fibrosis (Female C57BL/6 mice [2]): at least 20%

COc1ccc(CC(=O)O)cc1-c1ccc(-c2onc(C)c2NC(=O)OC(C)c2ccccc2Cl)cc1 (centres unmarked) [Compound 7, (4′-{4-[1-(2-Chloro-phenyl)-ethoxycarbonylamino]-3-methyl-isoxazol-5-yl}-6-methoxy-biphenyl-3-yl)-acetic Acid]
IC50 (human LPA1): 1000 to 50000 nM

Cc1noc(-c2ccc(-c3cccc(CC(=O)O)c3)cc2)c1NC(=O)OC(C)c1ccccc1Cl (centres unmarked) [Compound 12, (4′-{4-[1-(2-Chloro-phenyl)-ethoxycarbonylamino]-3-methyl-isoxazol-5-yl}-biphenyl-3-yl)-acetic acid]
IC50 (human LPA3): 300 to 1000 nM
